The values below come from PMC6078987, “Molecular insights into antibiotic resistance - how a binding protein traps albicidin” (Nature Communications, 2018).

Converted amounts (≈) assume the structure as drawn.

Test [1] has as its target AlbASCTD (Klebsiella oxytoca, UniProt Q8KRS7). Put plainly: Fluorescence quenching binding assay with AlbASCTD. The conditions noted are these: AlbASCTD 100 nM, n constrained to 1. The procedure:
Fluorescence quenching measurements were performed by monitoring tryptophan fluorescence of AlbAS (20 nM), AlbAL (20 nM), AlbASNTD, and AlbASCTD (100 nM) on a FluoroMax 2 spectrometer from Horiba (Potsdam, Germany). The excitation wavelength was set to λexc = 280 nm. Emission spectra were recorded from λem = 290–450 nm with a scanning speed of 1 nm s^−1 and an integration time of 1 s. The excitation and emission slit widths were set to 8 and 4 nm, respectively. Proteins were solved in 50 mM sodium phosphate buffer with 150 mM NaCl and 0.01% DMSO at pH 6.8. All measurements were performed twice and the standard deviation is given for the Kd and the Hill factor n. Data evaluation was performed by integration of the emission band (318–410 nm for AlbAS, 316–412 nm for AlbAL, and 319–390 nm for AlbASNTD and AlbASCTD) for every titration step. The area under the curve (AUC) of the buffer blank (buffer with 0.01% DMSO) was subtracted from the measured titration data. The quenching factor was determined by subtraction of AUCs for each titration step from the AUC of the protein in the absence of ligand. For determination of the AlbAS– and AlbAL–albicidin Kd values, the data were fitted to Eq. (2).2 Y=Bmax[L]^n/Kdn+[L]^n where [L], n, and Bmax denote the total ligand concentration, the Hill coefficient, and the maximum binding capacity of the protein, respectively.

Test [2] concerns the target AlbAL (Klebsiella oxytoca, UniProt A0A9P0U153). The experiment in a line: CD-detected thermal unfolding of AlbAL. As to conditions: 1.5-fold ligand, 20 µM protein; AlbAL alone 71 °C. Type of test: binding. The procedure:
For determination of the melting temperature and information on protein-ligand stability, CD measurements were performed on a J-815 CD spectrometer (Jasco, Groß-Umstadt, Germany). Protein samples (2.0 mM for AlbAS and 0.2 mM for AlbAL) were saturated with 1.5-fold albicidin and diluted to a protein concentration of 20 μM in order to ensure a final DMSO content of only 0.05% for AlbAS and 0.5% for AlbAL. A volume of 250 μL of the reaction mixture was transferred into a quartz cuvette with 1 mm path length. Six far-UV spectra were accumulated in a wavelength range of 195–300 nm (203–300 nm for AlbAL) at three different temperatures (10, 21, and 90 °C) with a scanning speed of 50 nm s^−1. For evaluation of the spectra the measured buffer blank (50 mM sodium hydrogen phosphate and 100 mM NaCl, pH 6.8) was subtracted from the averaged spectra. The temperature curves were recorded from 10–90 °C in 0.5 °C min^−1 steps while monitoring the ellipticity at 215 nm (218 nm for ALbAL). […] The melting temperatures of AlbAS, AlbAS–albicidin, AlbAS–compound 5, AlbAS–compound 7, AlbAL, and AlbAL–albicidin were determined by nonlinear regression of the measured data using Eq. (1). […] The Tm was thus determined by fitting the second transition representing the stabilized domain/species. […]

For test [3], the system named is Pseudomonas aeruginosa DSM 117. Further details: method as in PMID 17074789, PMID 25504839. As to conditions: cited from earlier work.

Sequence of AlbAL (A0A9P0U153 entry or part of it): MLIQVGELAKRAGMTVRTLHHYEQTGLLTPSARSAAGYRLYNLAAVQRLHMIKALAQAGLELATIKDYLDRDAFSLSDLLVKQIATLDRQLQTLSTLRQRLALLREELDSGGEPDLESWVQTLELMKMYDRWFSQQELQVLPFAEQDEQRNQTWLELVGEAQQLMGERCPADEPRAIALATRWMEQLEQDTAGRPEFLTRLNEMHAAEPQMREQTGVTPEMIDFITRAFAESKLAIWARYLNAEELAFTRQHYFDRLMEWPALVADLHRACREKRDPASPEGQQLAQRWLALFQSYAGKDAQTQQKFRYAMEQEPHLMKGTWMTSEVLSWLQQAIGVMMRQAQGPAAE
Sequence of AlbASCTD (Q8KRS7 entry or part of it): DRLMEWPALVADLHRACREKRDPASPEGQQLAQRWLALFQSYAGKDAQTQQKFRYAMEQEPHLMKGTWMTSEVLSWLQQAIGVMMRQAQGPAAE

The molecule `COc1c(NC(=O)c2ccc(NC(=O)c3ccc(NC(=O)[C@H](CC#N)NC(=O)c4ccc(NC(=O)/C(C)=C/c5ccc(O)cc5)cc4)cc3)c(OC)c2O)ccc(C(=O)O)c1O` [albicidin] displayed a Kd in test [1] of 600 ± 100 nM. In addition, the “melting temperature Tm of AlbAL upon ligand binding” value in test [2] turned out to be 74 °C. In test [3], the MIC was 1.0 µg/mL (≈ 1.19 µM).

As a reminder, the Kd is the concentration at which binding is half-saturated. Usually MIC stands for the least concentration at which growth counts as inhibited.
